Tests used:
[1] = Ready biodegradability of the sequestering agent; conditions: sequestering agent of the composition: A EDDS, B gluconic acid, C IDS Na, D EDTA
[2] = pH / physical stability on ageing; format: physicochemical; conditions: stable pH and absence of discoloration

| Compound | Biodegradability of sequestering agent (ready biodegradability) [1] | pH Physical stability on ageing [2] |
| --- | --- | --- |
| O=C(O)CN(CCN(CC(=O)O)CC(=O)O)CC(=O)O [EDTA, ethylene diamine tetraacetate] | non-ready biodegradable |  |
| O=C(O)C[C@H](NCCN[C@@H](CC(=O)O)C(=O)O)C(=O)O [EDDS, trisodium ethylene diamine-N,N-disuccinate] | biodegradable | imparting product physical stability |

— US6573230B1, “Liquid cleaning composition containing an effective biodegradable chelating agent” (Colgate-Palmolive Company, priority 2002, dated 2003)
